From ChEMBL document CHEMBL1137847, “3-D-QSAR of N-substituted 4-amino-3,3-dialkyl-2(3H)-furanone GABA receptor modulators using molecular field analysis and receptor surface modelling study” (Bioorg Med Chem Lett, 2004)

Target: GABA-A receptor; anion channel (Homo sapiens) (UniProt P14867+P47870+P18507+P28472+P48169+Q99928+Q9UN88+P34903+O00591+O14764+Q8N1C3+P18505+P78334+P47869+P31644+Q16445)
Test: Gamma-aminobutyric acid A receptor modulating activity (expressed as biological activity).
Format: protein-complex assay

Compound | BA
CCCC1(CCC)C(=O)OC[C@H]1NS(=O)(=O)c1cccs1 | -16
O=C1C[C@H](NC(=O)OCc2ccccc2)CO1 | 47
O=C1C[C@H](NCc2ccccc2)CO1 | 0
C=CC[C@H]1C(=O)OC[C@H]1NCc1ccccc1 | 73
CCCC1(CCC)C(=O)OCC1NC(=O)OCc1ccccc1 (single isomer, unassigned) | 279
CCCC1(CCC)C(=O)OC[C@H]1NS(=O)(=O)c1ccc(Cl)cc1 | 23
CCCC1(CCC)C(=O)OC[C@H]1NC(=O)OCC | 426
C=CCOC(=O)N[C@@H]1COC(=O)C1(CCC)CCC | 765
CCCC1(CCC)C(=O)OC[C@H]1NS(=O)(=O)c1ccc(OC)cc1 | -22
C=CC[C@@H]1C(=O)OC[C@H]1NCc1ccccc1 | -1
CCCC1(CCC)C(=O)OC[C@H]1NS(=O)(=O)c1ccc(C(F)(F)F)cc1 | -44
CCCC1(CCC)C(=O)OC[C@H]1NS(=O)(=O)c1ccc2ccccc2c1 | 4
CCCC1(CCC)C(=O)OC[C@H]1NC(=O)c1ccccc1 | 420
CCCC1(CCC)C(=O)OC[C@H]1NC(=O)Oc1ccccc1 | 330
C=CCC1(CC=C)C(=O)OC[C@H]1NCc1ccccc1 | 115
CCCC1(CCC)C(=O)OC[C@H]1NC(=O)OCc1ccccc1 | 104
CCCC1(CCC)C(=O)OC[C@H]1NC(=O)OC(C)(C)C | 46
CCCC1(CCC)C(=O)OC[C@H]1NS(=O)(=O)N(C)C | -1
